Test results from patent publication US20080176934A1, “Use Of Diosmetin Compounds In The Treatment And Prevention Of Thrombotic Pathologies” (Les Laboratoires Servier, priority 2005, published 2008).
Read-outs that look alike come from different tables or passages of the source.

Key:
[1] = system: PAI-1 promoter; test: PAI-1 promoter activity (PGL3/PAI-1 luciferase reporter) in transfected HepG2 cells; format: cell-based, human; conditions: for Activity in cpm (PAI-1 promoter activity): 10 μM, 24 h, n=6; for inhibition at 10 µM: Homo sapiens, HepG2, 24 h, read-out: % inhibition/control (PAI-1 promoter activity)
Protocol: The study is carried out on a line of human hepatocytes HepG2 (ATCC, no. HB-8065). The cells are cultured in a medium of MEM (minimal essential medium) with glutamax-1 (Gibco™) containing 10% FCS (foetal calf serum), 1% non-essential amino acids and 1% sodium pyruvate and supplemented with penicillin and streptomycin.
A fragment of 2.5 kb, corresponding to the PAI-1 promoter, extending from the nucleotides at positions −2442 to +136, was amplified by PCR and sub-cloned (Lopez et al., 2000, Atherosclerosis, 152, 359-366). In a final reaction volume of 50 μl, 2.5 units of Platinum® TaqDNA Polymerase High Fidelity (Invitrogen) are placed in the presence of 300 ng of human genomic DNA (Clontech), 300 μM of dNTP (deoxynucleotide triphosphate) (Clontech), 300 nM of primers in a medium containing the buffer specific to the enzyme, supplemented by 1.5 mM of MgCl2 and different concentrations of PCRx Enhancer System (Invitrogen), which facilitates amplification of the especially difficult sequences (0 to 4×). The set of primers used (Chen et al. Differential mechanisms of PAI-1 gene activation by transforming growth factor beta and tumor necrosis factor alpha in endothelial cells, 2001, Thrmb Haemost, 86, 1563-72) is as follows:
Ligation of the pGL3-Basic plasmid vector and the insert corresponding to the PAI-1 promoter was carried out by means of T4 DNA Ligase (LigaFast™ Rapid DNA Ligation System from Promega). Conventionally, during ligation, there is used an excess of insert which is equivalent to three times the amount of vector. Furthermore, because this insert is half as long as the vector (2.5 kb as opposed to 4.8 kb), maintaining stoichiometric equilibrium requires twice the mass of […]. 37.5 ng of insert and 25 ng of pGL3-Basic vector were therefore reacted in the presence of 3 units of T4 ligase, at ambient temperature.
The PGL3/PAI-1 plasmid is transfected into HepG2 cells. Transfection is carried out in plates having cells at 50% confluence, depositing Lipofectin® (1 mg/ml) and 1.5 μg of PGL3/PAI-1 plasmid in each of the wells. The Lipofectin® is activated for 30 min in an OPTI-MEM medium (GIBCO™) and then brought into contact for 15 min with the plasmids previously diluted with the medium. The cells are incubated for 6 hours at 37° C. in an atmosphere containing 5% CO2 and 95% […]. The transfection medium is withdrawn and replaced overnight by an enriched culture medium in order to stabilise the cells. Expression of the reporter genes is induced over 24 h in an MEM medium without serum. The cells are scratched and lysed in a lysis buffer (Dual-Luciferase® kit, Promega) and then held at −20° C.
The induction phase is 24 h for the HepG2 cells in the presence of TGFβ1 (1 ng/ml). During that induction phase, a PAI-1 expression inhibitor may be added 4 h before TGFβ1 and kept in contact with the cells until the end of the 24 h of the induction phase.
The PAI-1 promoter activity is determined by quantification of the luciferase activity produced (Dual-Luciferase® kit, Promega). To each well there is added a solution of luciferin, the substrate of firefly luciferase. […] The plate is incubated for 10 min in the dark because the luciferase activity is sensitive to light, and then a luminometer reading is started in order to quantify the photons emitted (Wallac, Perkin Elmer), the result obtained being the average cpm (counts per minute) over a period of 5 s.
6,8-Diallyl-5,7-dihydroxy-2-(2-allyl-3-hydroxy-4-methoxyphenyl)-4H-1-benzopyran-4-one, arbitrarily referred to as compound A, and T686 of formula 3(E)-benzylidene-4(E)-(3,4,5-trimethoxybenzylidene)pyrrolidine-2,5-dione (PAI-1 expression inhibitor of reference, from Tanabe) were tested at a concentration of 10 μM on HepG2 cells in the basal state and after induction with TGFβ1. The PAI-1 promoter activity is measured in the control condition and in the presence of inhibitors, in the basal and induced states.

[2] = system: arterial thrombosis induced by FeCl3 on the abdominal aorta; test: Model of arterial thrombosis induced by FeCl3 on the abdominal aorta in the rat; format: in vivo; conditions: male CD rats, 30 mg/kg/day per os for 5 days, FeCl3 50% on aorta
Protocol: The studies were carried out on male CD rats weighing between 250 and 400 g (Charles River Laboratories). The experimental protocol carried out on groups of from 6 to 8 rats comprises a group for each compound under test to be compared with a control group in which the rats are treated with a solvent. These rats are used to study the effects of an antithrombotic in a model of arterial thrombosis induced by FeCl3 on the abdominal aorta (Tanaka et al. Z-335, a new thromboxane A2 receptor antagonist, prevents arterial thrombosis induced by ferric chloride in rats, 2000, Eur. J. Pharmacol., 401, 413-418).
The rats are treated with the compound under test, for example 6,8-diallyl-5,7-dihydroxy-2-(2-allyl-3-hydroxy-4-methoxyphenyl)-4H-1-benzopyran-4-one (30 mg/kg/day) by administration per os by gavage for 5 days before arterial thrombosis is induced in those rats. The rats are anaesthetised using pentobarbital 50 mg/kg by intraperitoneal administration and their abdominal aortas are exposed following laparotomy. […]
The activity of 6,8-diallyl-5,7-dihydroxy-2-(2-allyl-3-hydroxy-4-methoxyphenyl)-4H-1-benzopyran-4-one is evaluated as a function of the weight of the clot removed from the aorta, that activity being greater for a lesser weight of clot.

[3] = HepG2, induced by TGFβ1 (1 ng/ml)

| Structure (SMILES) | Activity in cpm (PAI-1 promoter activity) ([1]; HepG2, basal condition) [cpm] | Activity in cpm (PAI-1 promoter activity) [1, 3] [cpm] | inhibition at 10 µM ([1]; HepG2, basal condition) [%] | inhibition at 10 µM [1, 3] [%] | reduction in the weight of the clot with respect to the control [2] [%] | Weight of clot ([2]; n=6, control 10.6 ± 0.7 mg) [mg] |
| --- | --- | --- | --- | --- | --- | --- |
| C=CCc1c(-c2cc(=O)c3c(O)c(CC=C)c(O)c(CC=C)c3o2)ccc(OC)c1O [Compound A, 6,8-diallyl-5,7-dihydroxy-2-(2-allyl-3-hydroxy-4-methoxyphenyl)-4H-1-benzopyran-4-one] | 445 ± 121 | 765 ± 138 | 69 | 78 | ~30 | 7.6 ± 0.4 |
| COc1cc(/C=C2/C(=O)NC(=O)/C2=C/c2ccccc2)cc(OC)c1OC [Compound T686, 3(E)-benzylidene-4(E)-(3,4,5-trimethoxybenzylidene)pyrrolidine-2,5-dione, reference compound] | 473 ± 143 | 1641 ± 173 | 67 | 52 |  |  |
